Reference: patent US8076311B2, “Compositions and methods for modulating the immune system” (priority 2006, dated 2011)
Where two headings read alike, the source gives them in different places.

Tests used:
T lymphocyte [1] = test: Patient case study: T lymphocyte competence (proliferation in response to PHA); type: in vivo, human
Experimental: (§1) The patient was treated with a Formula 2 compound and blood cell parameters were monitored. The sample size for this experiment was 1, consisting of subject 1. Subject 1 is an immune comprised patient with multiple recurrent infectious bouts requiring hospitalization while in a nearly moribund condition began treatment with the experimental drug Isopentyl adenosine (IPA).
(§2) The subject initially received IPA (see FIGS. 1 and 2). T and B lymphocyte competence as measured by the ability of these cells to proliferate in response to specific stimulating mitogens (PHA for T cells and PWM for B cells) which was monitored on a weekly basis until death. As shown in FIGS. 1 and 2 respectively the subject's T and B lymphocyte competence on was well below normal.

B lymphocyte = test: Patient case study: B lymphocyte competence (proliferation in response to PWM); type: in vivo, human
Experimental: as §1, §2

immune comprised patient = test: Patient case study: clinical status; type: in vivo, human
Experimental: The patient was treated with a Formula 2 compound and blood cell parameters were monitored. The sample size for this experiment was 1, consisting of subject 1. Subject 1 is an immune comprised patient with multiple recurrent infectious bouts requiring hospitalization while in a nearly moribund condition began treatment with the experimental drug Isopentyl adenosine (IPA). The subject had been hospitalized with avert life-threatening infections. The subject's total white blood cell counts were in the range of 2200-4900 for the three month period preceding hospitalization. […] The patient was hospitalized from depression, exhaustion, bronchial infection, severe diarrhea, severe weight loss and complete loss of appetite and spiked fever. The patient's weight was 98 pounds.

T lymphocyte [2] = conditions: patients receiving immune stimulating agents; cited from earlier work
lipid peroxidation = conditions: group III; day 15; liver; p<−0.001
Experimental: The liver of the sacrificed animals were excised quickly washed in ice-cold saline and kept at −70° C. till the day of analysis. On the day of analysis 25% homogenate was pre-pared in tris-HCl buffer (0.1 M, pH 7.4). The homogenate was centrifuged at 12000 rpm for 30 minutes and supernatant was used to determine the tissue lipid peroxide levels (LPO) using the TBA method of Okhawa et al.

irradiated animals = test: Effect of oltipraz on haematological parameters and body weight of irradiated animals; conditions: for Body weight on day 6: 750 rads, p>0.05
bone marrow cells = conditions: after the 15th day of post-irradiation
Experimental: (§3) Thirty six animals were divided into four groups of nine animals each. […] Group 4 was treated as normal animals without any treatment. On days 5, 10 and 15 after irradiation (750) rads three animals from each group was sacrificed. Blood was collected to heparinized tubes, and plasma was removed and following parameters were assayed in the blood. Activity of the enzyme SOD was measured by NBT reduction method of McCord and Fridovich. CAT activity was estimated by the method of Aebi by measuring the rate of decomposition of hydrogen peroxide at 240 nm. Level of GSH was assayed by the method of Moron et al based on the reaction with DTBN. Assay of GPX followed the method of Hafeman based on the degradation of H2O2 in the presence of GSH. The method of Habig was followed to assay the activity of GST based on the rate of increase in the conjugate formation between GSH and CDNB.
The femurs of three above animals were dissected out and bone marrow cells were flushed into phosphate buffered saline (pH 7.4) containing 2% foetal calf serum. The cells were washed and bone marrow viability was determined by the method of Sredni. The results were expressed as number of live bone marrow cells ×10(6)/femur.

GSH = conditions: oltipraz continuously administered group; 15th day; p<0.001
Experimental: as §3

GPX = conditions: group III; 15th day after irradiation; p<−0.001
Experimental: as §3

SOD = conditions: continuous administration; maximum value on the 15th day after irradiation
Experimental: as §3

GST = conditions: group III; 15th day; p<−0.01
Experimental: as §3

CAT = conditions: continuous administration; maximum on tenth day after irradiation
Experimental: as §3

[3] = resumed for one week with one-half the recommended dosage
[4] = within 7 days of drug therapy initiation
[5] = within a month of resuming therapy at recommended dose levels
[6] = first period of constant oral doses of IPA

For `CC(C)=CCNc1ncnc2c1ncn2[C@@H]1O[C@H](CO)[C@@H](O)[C@H]1O` [IPA, N6-(Δ2-isopentenyl) adenosine], the T lymphocyte competence (T lymphocyte [1]; dosage greatly (>3×) increased) was “depression suggesting immunotoxicity”, the T lymphocyte competence (T lymphocyte [1]; [3]) was “spiked dramatically to above the lower limit of the normal range” and the “Time to major rapid recovery of T lymphocyte competence after initiation of therapy” value (T lymphocyte [1]; subject 1, oral IPA) was “less than 7 days”. The “Level of T lymphocyte competence” value (T lymphocyte [1]; [4]) was “above the lower limits-of the normal donor's reactivity”, the T lymphocyte competence (T lymphocyte [1]; [5]) was “well within the range of normal donor reactivity” and the T lymphocyte competence (T lymphocyte [1]; within two weeks of resuming therapy at recommended dose levels) was “nearly within the normal range”. The B lymphocyte activity (B lymphocyte; [3]) was “slight rise”, the “Time to major rapid recovery of B lymphocyte competence after initiation of therapy” value (B lymphocyte; subject 1, oral IPA) was “less than 7 days” and the “Level of B lymphocyte competence” value (B lymphocyte; [4]) was “above the lower limits-of the normal donor's reactivity”. The B lymphocyte competence (B lymphocyte; [5]) was “somewhat below lower normal limits”, the Fever and diarrhea (immune comprised patient; [6]) was “completely subsided” and the Weight gain (immune comprised patient; [6]) was 15 pound. The “Life after initiation of therapy” value (immune comprised patient; patient terminally moribund at start) was 5 months.
In the case of `c1ccc([C@H]2CN3CCSC3=N2)cc1` [Levamisole], the “Immune recovery capacity compared with IPA” value (T lymphocyte [2]) is listed as “slower and less dramatic”.
In the case of `Cc1c(-c2cnccn2)ssc1=S` [oltipraz], the Lipid peroxidation (lipid peroxidation) is reported as 2.12±0.21 nano-moles of MDA formed/mg of protein, the “Body weight on day 6” value (irradiated animals; group II: oltipraz 50 mgs/Kg ten days prior to irradiation) is reported as 21.02±4.14 and the “WBC at later days after irradiation” value (irradiated animals; group III (oltipraz continuously administered) compared with group I (radiation alone) and group II) is reported as “significantly elevated WBC”. The “Body weight on day 6” value (irradiated animals; group III: oltipraz 50 mgs/Kg ten days prior to and fifteen days after irradiation) was 21.10±2.51, the Differential count (irradiated animals; irradiated mice, oltipraz groups) was “did not show any significant variation” and the Total leukocyte count (irradiated animals; oltipraz 50 mgs/Kg, irradiated mice, versus radiation alone) was “increase the count”. The Hemoglobin level (irradiated animals; oltipraz continuously administered group, day 6) was 12.42±2.76, the Bone marrow viability (bone marrow cells; group II (oltipraz pre treated)) was 5.82 ×10^6 cells/femur and the Bone marrow viability (bone marrow cells; group III (oltipraz continuously administered)) was 14.32 ×10^6 cells/femur. For the same compound, the “Levels of GSH compared with radiation alone treated group” value (GSH) was “increased almost three times”, the GPX activity (GPX) was 1927.87±136.06 U/L of haemolysate and the SOD activity (SOD) was “enhanced”. For the same compound, the GST activity (GST) was 2.38±0.25 nano-moles of CDNB-GSH conjugate formed and the CAT activity (CAT) was “enhanced”.
